Experimental data taken from patent US20060141010A1, “Coated preparations that contain at least one hydroformate” (Basf Aktiengesellschaft, priority 2003, published 2006).

Test system: one-day-old chickens
Experiment: Feeding experiment using coated trisodium hydrogenformate preparations in a standard wheat-soy diet
Assay type: in vivo
Details: after 21 days, vs negative control (standard wheat-soy diet)
Description: A feeding experiment was carried out using one-day-old chickens. Trisodium hydrogenformate was coated with 0, 15 and 30% by weight hydrogenated soybean oil. Per dose, 2 repetitions were carried out, and 10 chickens were used in each feeding experiment.
A standard wheat-soy diet was used as negative control. The coated trisodium hydrogenformate preparations were added to the diet in exchange for cellulose (1% in the negative control).
Feeding results compared with the negative control [%] after 21 days.

[1] = 0.4 % by weight trisodium hydrogenformate in diet
[2] = 0.8 % by weight trisodium hydrogenformate in diet

In the case of `O=CO.O=C[O-].O=C[O-].O=C[O-].[Na+].[Na+].[Na+]` [trisodium hydrogenformate], the “FCR (feed conversion rate), feeding results compared with the negative control” value [1] is reported as “+2%”, the “Weight gain, feeding results compared with the negative control” value [1] is reported as “+2%” and the “FCR (feed conversion rate), feeding results compared with the negative control” value [2] is reported as “+5%”. For the same molecule, the “Weight gain, feeding results compared with the negative control” value [2] was “+2%”.
